Results as given in patent US9682928B2 (NeuroPro Therapeutics, Inc., priority 2009, dated 2017).
“Also recorded” adds a separate entry of the source.

Tests used:
Male CD-1 mice = assay: 52° C. warm water tail-flick test (acute nociceptive study); format: in vivo, mouse; conditions: for Activity in tail-flick test: all doses starting at 32 mg/kg (NTP-2014) or 56 mg/kg (NTP-2026, NTP-2024); for % Antinociception: A50 not determined
Excerpt: Subjects: Male CD-1 (25-35 g, Charles River) were used for all studies. Mice were housed in groups of five in Plexiglas chambers with food and water available ad libitum. All animals were maintained on a 12 hr light/dark cycle (lights on at 7:00 AM) in a temperature- and humidity-controlled animal colony. The health status of the animals used in this study were examined on arrival. Only animals in good health were acclimatized to laboratory conditions and used in the study. The acclimation period to the vivarium was a minimum of 7 days. All animal experiments were performed under an approved protocol in accordance with institutional guidelines and in accordance with the Guide for the Care and Use of Laboratory Animals as adopted and promulgated by the National Institutes of Health.
Behavioral Testing: Efficacy of the test compounds were assessed using the 52° C. warm water tail-flick test. The latency to the first sign of a rapid tail-flick was taken as the behavioral endpoint (Jannsen, et al. 1963). Each mouse was first tested for baseline latency by immersing its tail in the water and recording the time to response. Mice not responding within 5 seconds were excluded from further testing. Test compounds were then injected and the mice were rested for thermal latencies at 10, 20, 30, 45, 60, 90, 120 and 180 minutes post-injection (if a drug effect dropped below 20% for the group average then the testing was halted for that group). Antinociception was calculated by the following formula: % Antinociception=100×(test latency−control latency)/(10-control latency). A maximum score was assigned (100%) to animals not responding within 10 seconds to avoid tissue damage.
Preparation of Test Materials: NTP-2014 (m.w. 420.52 for free base; lot number: 004JXS047) was dissolved in 0.2% hydroxypropylmethylcellulose (HPMC) in physiological saline to yield final concentrations of between 3.2 and 10 mg/ml (pH ˜7.4). NTP-2024 (m.w. 433.52 for free base; lot number: 024DGM048) was dissolved in 0.2% HPMC in physiological saline to yield final concentrations of between 5.6 and 18 mg/ml (pH ˜7.4). NTP-2026 (m.w. 462.61 for free base; lot number: 002JRA064) was first dissolved in 100% ETOH (10× solution) and then this stock solution was diluted to final concentrations of 5.6-10 mg/ml using 0.2% HPMC in physiological saline (pH ˜7.4). Final ETOH concentration was approximately 10%. Tween 80 (1-2 drops) was added to all solutions to aid in solubilization of compounds.
All groups contained n=8-10 mice.

male Sprague Dawley rats = assay: Taxol-induced peripheral neuropathy (rat), mechanical allodynia (von Frey); format: in vivo; conditions: for Pain relief as measured by mechanical allodynia: rat, IP, Day 32, 75 mg/kg (NTP-2014, NTP-2026)
Excerpt: In this study, an animal model of Taxol-induced sensory neuropathy was employed to evaluate the effects of the sponsor's test compounds, for response to tactile sensitivity using von Frey test of mechanical allodynia. […] Therefore, Taxol-induced mechanical allodynia was employed as the measured behavioral endpoint.
The test substance was homogenized and dispersed using a mortar and a pestle in 0.2% hydroxypropylmethylcellulose (HPMC) in physiological saline, which served as the vehicle. Test articles were administered intraperitoneally in dose volumes of 10 mL/kg body weight. Preparations were made freshly for each day of administration.
Prior to test article NTP-2024 and vehicle control group administration, rats were pretreated at 30 minutes and again at 10 minutes prior to test article administration with a general metabolic inhibitor, piperonyl butoxide (150 mg/kg i.p.) in DMSO, at a volume of 1 mL/kg.
The reference article, Gabapentin, was formulated in saline to a concentration of 100 mg/mL and delivered […] at a dose volume of 1 mL/kg body weight (for a dosing concentration of 100 mg/kg).
All animals were administered Taxol, 2 mg/kg, IP at a dose volume of 1 mL/kg, on Days 1, 3, 5 and 7.
On Day 32, all animals received a single intraperitoneal injection of test article or vehicle according to Tables 1 and 2. For group 1 (vehicle), rats were pre-treated with Piperonyl butoxide (150 mg/kg IP, dose volume of 1 mL/kg) at 30 minutes and again at 10 minutes prior to vehicle administration. Four animals in group 3 (NTP-2024) were also pre-treated with Piperonyl butoxide (150 mg/kg IP, dose volume of 1 mL/kg) at 30 minutes and again at 10 minutes prior to vehicle administration. Animals in Groups 2, 3, 4, & 5 were pre-treated with Saline (dose volume of 1 mL/kg, IP) at 30 minutes and again at 10 minutes prior to test article administration. With the exception of animals in group 2, the animals received an IP injection of vehicle or test article 30 min prior to mechanical allodynia testing. Animals were dosed at a volume of 10 mL/kg.
Animals in group 2, received an IP injection of Gabapentin 90 minutes prior to mechanical allodynia testing. Animals were dosed at a volume of 1 mL/kg.
All animals underwent von Frey testing for mechanical allodynia. On testing days, the animals were returned to the chambers and allowed approximately 15 minutes to explore their surroundings prior to testing. A series of filaments were applied to the left hind paw. A 2.0 g filament was first applied to the plantar surface, if the animal responded to the filament (by lifting its paw) then the next smaller filament was applied. […] This is repeated in an “Up down” method for four responses after the first initial change in response.
The original study design used thermal hyperalgesia as the main parameter for testing the ability of the test compounds to ameliorate the pain associated with the Taxol injection. The treatment inclusion was set at a 20% drop from baseline values as determined on Day 28. […] The study design was amended to use mechanical allodynia as the testing parameter. […] This changed the testing days from Day 28 to Day 31 for allodynia confirmation and Day 29 to Day 32 for testing the article efficacy. Additional animals were received to complete the group size designation. These animals were tested for mechanical allodynia only. The study was then further amended to remove the piperonyl butoxide as a pre-treatment for Group 3 (NTP-2024). […] Because this study was conducted in two portions, four (4) animals from Group 3 received the metabolic inhibitor and five (5) received Saline as a pre-treatment.
The group mean results were analyzed versus the vehicle control group using a two way ANOVA, followed by a Bonferroni post-hoc test. Individual groups were tested pre and post dose using a paired t-test.

Rat = assay: Exploratory Bennett neuropathic pain (rat), plus inhibitor; format: in vivo

Structure (SMILES) | Activity in tail-flick test (Male CD-1 mice; mice) | % anti-nociception relative to high dose morphine (Male CD-1 mice; tail-flick test, mice, without behavioral observations) | Activity compared to GBP at 100 mg/kg (male Sprague Dawley rats; 75 mg/kg) | Pain relief as measured by mechanical allodynia (male Sprague Dawley rats; 75 mg/kg) | Activity against tactile allodynia (Rat) | % Antinociception (Male CD-1 mice; 180 mg/kg) | Mean allodynia score (male Sprague Dawley rats; metabolic inhibitor pre-treatment removed) | Mean allodynia score (male Sprague Dawley rats; pre-treated with the metabolic inhibitor (PBx)) | % Antinociception (Male CD-1 mice; 56 mg/kg) | Animals with complete reversal of allodynia (male Sprague Dawley rats; group of nine rats)
CCCCN(CCCC)c1cc(C(=O)O)cc(S(N)(=O)=O)c1Oc1ccccc1 [NTP-2014, 3-Aminosulfonyl-5-N,N-dibutylamino-4-phenoxybenzoic acid] | effective analgesic effects; also recorded: Significant activity in tail- | nociception equal to high | mechanical allodynia-equal to if not better activity | significant improvement in allodynia; also recorded: significant treatment effect; also recorded: effective analgesic effects | Significant effects against tactile allodynia |  |  |  |  | 
CCCCNc1cc(C(=O)NN2CCOCC2)cc(S(N)(=O)=O)c1Oc1ccccc1 [NTP-2024, N-Morpholinyl 3-Aminosulfonyl-5-N-butylamino-4-phenoxybenzamide] | Significant activity in tail- |  |  |  | Dose-related activity against tactile | ~48% | 8.04 g | 14.92 g |  | 
CCCCNc1cc(C(=O)N(C)CCCN(C)C)cc(S(N)(=O)=O)c1Oc1ccccc1 [NTP-2026, N-(3-(Dimethylamino)propyl)-N-methyl 3-Aminosulfonyl-5-N-butylamino-4-phenoxybenzamide] | Significant activity in tail- |  |  | slight improvement; also recorded: Several animals demonstrated complete responses | Very low doses tested, no significant |  |  |  | ~25% | Three of the nine animals
